The test has as its target T1, human orexin type 2 receptor (hOX2R) (Homo sapiens, UniProt O43614).
T1 construct: expressed in transfected cells
T1 sequence (O43614 1-444): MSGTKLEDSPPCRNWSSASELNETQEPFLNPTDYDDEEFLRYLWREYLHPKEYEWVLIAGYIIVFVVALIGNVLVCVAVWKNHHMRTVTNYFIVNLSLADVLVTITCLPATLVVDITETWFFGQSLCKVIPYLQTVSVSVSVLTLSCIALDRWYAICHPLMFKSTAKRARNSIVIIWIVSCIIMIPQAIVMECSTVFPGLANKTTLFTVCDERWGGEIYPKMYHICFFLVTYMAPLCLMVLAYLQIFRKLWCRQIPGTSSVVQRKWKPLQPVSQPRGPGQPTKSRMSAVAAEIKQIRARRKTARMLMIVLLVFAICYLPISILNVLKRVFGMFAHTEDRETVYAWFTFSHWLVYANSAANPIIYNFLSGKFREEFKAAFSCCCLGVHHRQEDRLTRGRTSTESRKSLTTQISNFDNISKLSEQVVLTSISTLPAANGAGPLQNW
Kind of test: Measurement of orexin type 2 receptor agonist activity (FLIPR calcium fluorescence). The class given is cell-based. Particulars: for EC50: read-out: hOx2 pEC50 (converted); for Emax: CHO, read-out: hOx2 Emax (%). In a few lines: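 Agonism was read as fluorescence in cells stably expressing human OX2R. E. is the response at 10 μM relative to orexin A as full agonist (100%).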

Where [1] appears, read: CHO cells expressing hOX2R, FLIPR calcium fluorescence.

Experimental findings from patent US12503475B2 (Centessa Pharmaceuticals (UK) Limited, priority 2020, dated 2025) are described below.

Molecules are shown by their SMILES. Where two headings read alike, the source gives them in different places.

As for `N#CCS(=O)(=O)N[C@@H]1[C@H](Cc2cccc(-c3ccccc3)c2)N(C(=O)[C@H]2CCO2)CC12CC2` [Compound 73], under setting [1], the EC50 is 10 to 100 nM and the Emax (as a rule, the greatest response seen or fitted, relative to the assay's reference) is 90 to 100%.
Consider `COCCOCCS(=O)(=O)N[C@@H]1[C@H](Cc2cccc(-c3ccccc3)c2)N(C(=O)[C@H]2CCO2)CC12CC2` [Compound 74, N-((6S,7S)-6-([1,1′-biphenyl]-3-ylmethyl)-5-((R)-oxetane-2-carbonyl)-5-azaspiro[2.4]heptan-7-yl)-2-(2-methoxyethoxy)ethane-1-sulfonamide], for which, under setting [1], the EC50 was 10 to 100 nM and the Emax lay within 90 to 100%.
For `O=C([C@H]1CCO1)N1CC2(CC2)[C@H](NS(=O)(=O)c2c[nH]cn2)[C@@H]1Cc1cccc(-c2ccccc2)c1` [Compound 75, N-((6S,7S)-6-([1,1′-biphenyl]-3-ylmethyl)-5-((R)-oxetane-2-carbonyl)-5-azaspiro[2.4]heptan-7-yl)-1H-imidazole-4-sulfonamide], under setting [1], the EC50 was 10 to 100 nM and the maximal effect (Emax) was 90 to 100%.
On to `O=C([C@H]1CCO1)N1CC2(CC2)[C@H](NS(=O)(=O)N2CCC2)[C@@H]1Cc1cccc(-c2ccccc2)c1` [Compound 76, N-((6S,7S)-6-([1,1′-biphenyl]-3-ylmethyl)-5-((R)-oxetane-2-carbonyl)-5-azaspiro[2.4]heptan-7-yl)azetidine-1-sulfonamide], for which, under setting [1], the EC50 was 10 to 100 nM and the maximum response (Emax) is 90 to 100%.
Taken in the same sequence, the figures for `O=C([C@H]1CCO1)N1CC2(CC2)[C@H](NS(=O)(=O)C2COC2)[C@@H]1Cc1cccc(-c2ccccc2)c1` [Compound 77, N-((6S,7S)-6-([1,1′-biphenyl]-3-ylmethyl)-5-((R)-oxetane-2-carbonyl)-5-azaspiro[2.4]heptan-7-yl)oxetane-3-sulfonamide] were 10 to 100 nM and 90 to 100%.
In the case of `CCN(C)S(=O)(=O)N[C@@H]1[C@H](Cc2cccc(-c3ccccc3)c2)N(C(=O)[C@H]2CCO2)CC12CC2` [Compound 78, N-((6S,7S)-6-([1,1′-biphenyl]-3-ylmethyl)-5-((R)-oxetane-2-carbonyl)-5-azaspiro[2.4]heptan-7-yl)-N-methyl-N-ethylsulfuric diamide], under setting [1], the EC50 was 10 to 100 nM and the Emax was in the range of 90 to 100%.
Regarding `CS(=O)(=O)N[C@@H]1[C@H](Cc2cccc(-c3ccccc3)c2F)N(C(=O)NCCCF)CC12CC2` [Compound 79, (6S,7S)-6-((2-fluoro-[1,1′-biphenyl]-3-yl)methyl)-N-(3-fluoropropyl)-7-(methylsulfonamido)-5-azaspiro[2.4]heptane-5-carboxamide], under setting [1], the EC50 is 1 to 10 nM and the Emax is 90 to 100%.
Regarding `CS(=O)(=O)N[C@@H]1[C@H](Cc2cccc(-c3ccccc3)c2F)N(C(=O)N2CC[C@H]2CF)CC12CC2` [Compound 80, N-((6S,7S)-6-((2-fluoro-[1,1′-biphenyl]-3-yl)methyl)-5-((S)-2-(fluoromethyl)azetidine-1-carbonyl)-5-azaspiro[2.4]heptan-7-yl)methanesulfonamide], under setting [1], the EC50 was 0.0794 to 1 nM and the Emax was in the range of 90 to 100%.
For the compound `CN(CC(F)F)C(=O)N1CC2(CC2)[C@H](NS(C)(=O)=O)[C@@H]1Cc1cccc(-c2ccccc2)c1F` [Compound 81, (6S,7S)-N-(2,2-difluoroethyl)-6-((2-fluoro-[1,1′-biphenyl]-3-yl)methyl)-N-methyl-7-(methylsulfonamido)-5-azaspiro[2.4]heptane-5-carboxamide], under setting [1], the EC50 was 0.0794 to 1 nM and the maximum response (Emax) was in the range of 90 to 100%.
For the compound `CN(CCF)C(=O)N1CC2(CC2)[C@H](NS(C)(=O)=O)[C@@H]1Cc1cccc(-c2ccccc2)c1F` [Compound 82, (6S,7S)-6-((2-fluoro-[1,1′-biphenyl]-3-yl)methyl)-N-(2-fluoroethyl)-N-methyl-7-(methylsulfonamido)-5-azaspiro[2.4]heptane-5-carboxamide], under setting [1], the EC50 was 1 to 10 nM and the maximal effect (Emax) is 90 to 100%.
The corresponding values for `CS(=O)(=O)N[C@@H]1[C@H](Cc2cccc(-c3ccccc3)c2F)N(C(=O)NC2CC(F)(F)C2)CC12CC2` [Compound 83, (6S,7S)-N-(3,3-difluorocyclobutyl)-6-((2-fluoro-[1,1′-biphenyl]-3-yl)methyl)-7-(methylsulfonamido)-5-azaspiro[2.4]heptane-5-carboxamide] are 10 to 100 nM and 90 to 100%.
Take `C[C@H](F)CNC(=O)N1CC2(CC2)[C@H](NS(C)(=O)=O)[C@@H]1Cc1cccc(-c2ccccc2)c1F` [Compound 84, (6S,7S)-6-((2-fluoro-[1,1′-biphenyl]-3-yl)methyl)-N-((S)-2-fluoropropyl)-7-(methylsulfonamido)-5-azaspiro[2.4]heptane-5-carboxamide]: under setting [1], the EC50 was 0.0794 to 1 nM and the maximal response (Emax) was in the range of 90 to 100%.
Taken in the same sequence, the figures for `CC(C)NC(=O)N1CC2(CC2)[C@H](NS(C)(=O)=O)[C@@H]1Cc1cccc(-c2ccccc2)c1F` [Compound 85] were 0.0794 to 1 nM and 90 to 100%.
In the case of `CS(=O)(=O)N[C@@H]1[C@H](Cc2cccc(-c3ccccc3)c2F)N(C(=O)NCCF)CC12CC2` [Compound 86, (6S,7S)-6-((2-fluoro-[1,1′-biphenyl]-3-yl)methyl)-N-(2-fluoroethyl)-7-(methylsulfonamido)-5-azaspiro[2.4]heptane-5-carboxamide], under setting [1], the EC50 was 1 to 10 nM and the Emax is 90 to 100%.
For the compound `CS(=O)(=O)N[C@@H]1[C@H](Cc2cccc(-c3ccccc3)c2F)N(C(=O)N2CC(F)(F)C2)CC12CC2` [Compound 87, N-((6S,7S)-5-(3,3-difluoroazetidine-1-carbonyl)-6-((2-fluoro-[1,1′-biphenyl]-3-yl)methyl)-5-azaspiro[2.4]heptan-7-yl)methanesulfonamide], under setting [1], the EC50 was 10 to 100 nM and the maximal response (Emax) was in the range of 90 to 100%.
As for `CCN(C)C(=O)N1CC2(CC2)[C@H](NS(C)(=O)=O)[C@@H]1Cc1cccc(-c2ccccc2)c1F` [Compound 88, (6S,7S)-N-ethyl-6-((2-fluoro-[1,1′-biphenyl]-3-yl)methyl)-N-methyl-7-(methylsulfonamido)-5-azaspiro[2.4]heptane-5-carboxamide], under setting [1], the EC50 is 0.0794 to 1 nM and the maximal response (Emax) is 90 to 100%.
With `CCNC(=O)N1CC2(CC2)[C@H](NS(=O)(=O)CC)[C@@H]1Cc1cccc(-c2ccccc2)c1F` [Compound 89], under setting [1], the “hOx2 Emax (%)” value was “A (Emax ranging between 90 and 100)”; the “hOx2 pEC50” value is “***** (pEC50 ranging between 9.0 and 10.1)”.
With `O=C([C@H]1CCO1)N1CC2(CC2)[C@H](NS(=O)(=O)CF)[C@@H]1Cc1cccc(-c2ccccc2)c1F` [Compound 93, 1-fluoro-N-((6S,7S)-6-((2-fluoro-[1,1′-biphenyl]-3-yl)methyl)-5-((R)-oxetane-2-carbonyl)-5-azaspiro[2.4]heptan-7-yl)methanesulfonamide], under setting [1], the EC50 was 0.0794 to 1 nM and the Emax lay in the range of 90 to 100%.
For `O=C([C@H](O)C(F)(F)F)N1CC2(CC2)[C@H](NS(=O)(=O)CF)[C@@H]1Cc1cccc(-c2ccccc2)c1` [Compound 94, N-((6S,7S)-6-([1,1′-biphenyl]-3-ylmethyl)-5-((S)-3,3,3-trifluoro-2-hydroxypropanoyl)-5-azaspiro[2.4]heptan-7-yl)-1-fluoromethanesulfonamide], under setting [1], the EC50 is 1 to 10 nM and the Emax was in the range of 90 to 100%.
With `CN(C)S(=O)(=O)N[C@@H]1[C@H](Cc2cccc(-c3ccccc3)c2)N(C(=O)[C@H]2CCO2)CC12CC2` [Compound 95, N-((6S,7S)-6-([1,1′-biphenyl]-3-ylmethyl)-5-((R)-oxetane-2-carbonyl)-5-azaspiro[2.4]heptan-7-yl)-N,N-dimethylsulfuric diamide], under setting [1], the EC50 is 1 to 10 nM and the Emax was 90 to 100%.
With `O=C([C@H]1CCO1)N1CC2(CC2)[C@H](NS(=O)(=O)N2CCCC2)[C@@H]1Cc1cccc(-c2ccccc2)c1` [Compound 96, N-((6S,7S)-6-([1,1′-biphenyl]-3-ylmethyl)-5-((R)-oxetane-2-carbonyl)-5-azaspiro[2.4]heptan-7-yl)pyrrolidine-1-sulfonamide], under setting [1], the EC50 is 10 to 100 nM and the maximal response (Emax) is 80 to 90%.
On to `CN(C1CC1)S(=O)(=O)N[C@@H]1[C@H](Cc2cccc(-c3ccccc3)c2)N(C(=O)[C@H]2CCO2)CC12CC2` [Compound 97], for which, under setting [1], the EC50 is 10 to 100 nM and the Emax was in the range of 80 to 90%.
In the case of `O=C([C@H](O)C(F)(F)F)N1CC2(CC2)[C@H](NS(=O)(=O)CF)[C@@H]1Cc1cccc(-c2ccccc2)c1F` [Compound 98, 1-fluoro-N-((6S,7S)-6-((2-fluoro-[1,1′-biphenyl]-3-yl)methyl)-5-((S)-3,3,3-trifluoro-2-hydroxypropanoyl)-5-azaspiro[2.4]heptan-7-yl)methanesulfonamide], under setting [1], the EC50 is 1 to 10 nM and the Emax fell in the range of 90 to 100%.
`CS(=O)(=O)N[C@@H]1[C@H](Cc2cccc(-c3ccccc3)c2F)N(C(=O)NCC(F)(F)F)CC12CC2` [Compound 99, (6S,7S)-6-((2-fluoro-[1,1′-biphenyl]-3-yl)methyl)-7-(methylsulfonamido)-N-(2,2,2-trifluoroethyl)-5-azaspiro[2.4]heptane-5-carboxamide]: the Emax lay in the range of 90 to 100%. Also, the EC50 under setting [1] was 1 to 10 nM.
